Measured values from BindingDB's records for doi:10.1021/jm00403a015 (Washington State University, 1988).

Target: Cytidine deaminase (Mus musculus) (UniProt P56389)
Experiment: Inhibition of cytidine deaminase enzyme obtained from mouse kidney

Chain of Cytidine deaminase (Mus musculus) (P56389 whole entry, looked up): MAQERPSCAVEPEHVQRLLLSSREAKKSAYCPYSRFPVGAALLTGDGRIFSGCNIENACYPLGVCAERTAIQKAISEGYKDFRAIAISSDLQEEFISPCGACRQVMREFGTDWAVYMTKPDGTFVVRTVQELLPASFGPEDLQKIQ

- Ki: 330 µM
Structure (SMILES): [O-][S+]1C=CN(C2O[C@H](CO)[C@@H](O)[C@H]2O)C(O)=C1 (stereo partly specified)
